# Test results as given in patent US20240269120A1, “Method for Treating an Autoimmune and Inflammatory Disease” (Cellestia Biotech AG, priority 2021, published 2024).
# Legend:
# [1] = tested on: Treg cells (CD4+CD25highFOXP3+); assay: In vivo dosing of C57BL6 mice, Treg cells in spleen; parameters: species or system mouse; settings: C57BL6 wild type mice, 60 mg/kg QD
# Method: C57BL6 wild type mice were treated with 6-(4-tert-butylphenoxy)pyridin-3-amine at 60 mg/kg dose (QD). […] (*) p<0.05. Each bar represents the mean±SEM (N=3 replicates).
# (§1) In vivo treatment of mice and pharmacodynamic response: Mice experiments were performed in compliance with authorization to perform animal experiments (VD3323). Briefly, 6-8 weeks old wild type C57Bl6 mice were subcutaneously or intraperitoneally dosed with vehicle or compounds for different durations. Mice were sacrificed, spleens were harvested 24 hours post-last dosing. Splenocytes were analyzed for cell surface and intracellular markers expression using flow cytometry. RNA expression analyses were performed using quantitative real time PCR.
# (§2) Flow cytometry analysis: Flow cytometry analysis was performed to quantify cell surface and intracellular markers expression and measure cell division index.
# [2] = tested on: IL-12a mRNA; assay: Quantitative RT-PCR of splenocyte mRNA after in vivo dosing: IL-12a; parameters: species or system mouse; settings: in vivo treated mice vs vehicle; p<0.01; FIG. 4
# Method: FIG. 4: In vivo 6-(4-tert-butylphenoxy)pyridin-3-amine dosing leads to a downregulation of pro-inflammatory cytokine IL-12a mRNA in mouse spleen. […] Each bar represents the mean±SD (N=3 replicates). (**) p<0.01
# as §1
# [3] = tested on: activated CD4 T cells; assay: Cell proliferation assay (Cell trace violet), activated CD4 T cells; format: cell-based; settings: control 0%
# Method: (§3) Following PBMC injections, mice were treated with vehicle or 6-(4-tert-butylphenoxy)pyridin-3-amine or Ruxolitinib starting at day 0. Mice were monitored from 60-85 days for symptoms of GvHD and scored according to a standard clinical scoring system for GvHD (Naserian et al., 2018) (see table 1) and a cumulative clinical score was obtained by addition of clinical score for individual parameters. A maximum score of 6 is measured when reaching endpoint. Cell proliferation assay: The effect of compounds on T cell proliferation was quantified using Cell trace violet (CTV). PBMCs/splenocytes were incubated with CTV for 20 minutes at 37° C. Cells were washed twice with RPMI complete medium. CTV labelled cells were stimulated with anti-CD3 and anti-CD28 antibodies and treated with control or compounds and cultured at 37° C. for 96 hours. The cell division index was measured by flow cytometry.
# as §2
# [4] = tested on: IFNG; assay: Cytokine profiling in human patient plasma (MSD): IFNG; format: in vivo; settings: human patients, day 29 on treatment vs baseline pre-treatment
# Method: Cytokine profiling in human plasma samples: Plasma samples from patients treated with 6-(4-tert-butylphenoxy)pyridin-3-amine were collected and stored at −80° C. until analysed. Cytokine and chemokine profiling was performed using MesoScale Discovery (MSD) platform and three assay panels: 1) Pro-inflammatory panel human, 2) Human IL-6 assay S-Plex, 3) Human IL-10 assay S-Plex.
# [5] = tested on: NSG mice injected with human PBMCs (GvHD); assay: Humanized GvHD mouse model, ex vivo pre-treated PBMCs plus in vivo treatment; settings: sum of individual scores; label = ex vivo PBMC treatment/in vivo treatment; DMSO/Vehicle 7.8
# Method: Humanized GvHD mouse model: 6-8 weeks old NSG mice were intraperitoneally injected with 10 million human peripheral blood mononuclear cells (PBMCs) as below:
# A cumulative GvHD clinical score was calculated by addition of scores for individual parameters (e.g. cumulative score=BWL+posture+activity+fur texture+skin integrity+paleness).
# Ex-vivo pre-treatment of PBMCs and in-vivo treatment of mice: Human PBMCs were ex-vivo treated with either DMSO or 6-(4-tert-butylphenoxy)pyridin-3-amine and then intraperitoneally injected into NSG mice. Mice were in vivo treated with different compounds as below: • i. DMSO ex vivo hPBMCs treatment (7 hrs), plus vehicle in vivo treatment • ii. DMSO ex vivo hPBMCs treatment (7 hrs), plus 6-(4-tert-butylphenoxy)pyridin-3-amine in vivo treatment for 3 days • iii. 6-(4-tert-butylphenoxy)pyridin-3-amine ex vivo hPBMCs treatment (7 hrs), plus 6-(4-tert-butylphenoxy)pyridin-3-amine in vivo treatment for 3 days • iv. DMSO ex vivo PBMCs treatment (7 hrs) plus Ruxolitinib in vivo treatment for 3 days • v. 6-(4-tert-butylphenoxy)pyridin-3-amine ex vivo hPBMCs treatment (7 hrs), plus Ruxolitinib in vivo treatment for 3 days
# as §3
# [6] = tested on: irradiated Balb/c mice transplanted with TCD-BM + splenocytes from C57Bl6 mice (GvHD); assay: Allogeneic bone marrow transplant GvHD model; format: in vivo, mouse
# Method: (§4) Allogeneic Bone marrow transplant: Recipient Balb/c mice were irradiated twice 3.75Gy (T=0 and T=4 h) in an X-ray source irradiator before transplantation at T=8 h. Treatment with antibiotics (Nopil) and analgesic (Dafalgan) was supplemented to drinking water 4 days before injection. Irradiated recipient Balb/c mice were transplanted with 5 million T cell depleted bone marrow+1 million splenocytes. Allogeneic recipient animals were treated with vehicle or 6-(4-tert-butylphenoxy)pyridin-3-amine subcutaneously at 20 mg/kg for two days immediately after allo-BM transplant, given a 10 days treatment holiday to recover body weight loss due to whole body irradiation and then treatment continued at 20 mg/kg. […] Animals were monitored for symptoms of GvHD development (severe body weight loss, alopecia and diarrhea.
# Graft vs host disease (GvHD) is an example of alloimmune disease that develops following allo-hematopoetic stem cell transplant (allo-HSCT) in humans. The activity of 6-(4-tert-butylphenoxy)pyridin-3-amine and a calcineurin inhibitor Cyclosprin A was investigated in a mouse model of GvHD following allo-bone marrow transplant. In this model, T cell depleted bone marrow cells (TCD-BM)+splenocytes from C57Bl6 mice were transplanted into irradiated Balb/c mice.
# [7] = tested on: IFNG; assay: Cytokine analysis in allogeneic bone marrow transplant (LEGENDplex): IFNG; format: in vivo, mouse; settings: allo-BM+splenocyte transplanted mice, day 36, vs vehicle; FIG. 6
# Method: as §4
# Cytokine analysis in allogeneic Bone marrow transplant: The recipient animals were bled on day 36 and blood plasma was extracted to determine inflammatory cytokine concentration (IFNγ, IL-6, IL-17a) by LEGENDplex™ multiplexed assay.
structure (smiles),measurement,setting,value
CC(C)(C)c1ccc(Oc2ccc(N)cn2)cc1 [6-(4-tert-butylphenoxy)pyridin-3-amine],Treg cells (CD4+CD25highFOXP3+) number,"[1]; p<0.05, FIG. 2a",significantly increased
same,Treg cells (CD4+CD25highFOXP3+) frequency,"[1]; p<0.05, FIG. 2b",significantly increased
same,IL-12a transcript in splenocytes,[2],downregulation
same,Percentage inhibition of CD4 T cells (proliferation),[3],81%
same,Percentage downregulation of IFNG in blood plasma,[4],90% (day 29 on treatment)
same,Cumulative GvHD score,[5],decreased cumulative GvHD score significantly
same,prevention of GvHD development (in words),"[6]; allo-bone marrow transplant, compared with vehicle",prevents development of GvHD
same,treated animals that developed GvHD,"[6]; allo-bone marrow transplant, 60% of vehicle treated animals died due to GvHD, FIG. 5",20%
same,animals remained GvHD free,"[6]; allogeneic bone marrow+splenocyte transplantation, vehicle 40%, FIG. 5",80%
same,IFNG in blood plasma,[7],downregulation
